Source: PubChem BioAssay (NCI)
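GI50 = concentration required for 50% inhibition of growth. At the TGI there is no net growth.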

What was measured:
Assay in all cases: NCI anticancer screen, dose series, 384-well format; in the data active = GI50 below about 0.43 µM; inactive = the rest
786-0 renal = tested on: 786-0 renal
A498 renal = tested on: A498 renal
A549 NSCLC = tested on: A549 NSCLC
ACHN renal = tested on: ACHN renal
BT-549 breast = tested on: BT-549 breast
CAKI-1 renal = tested on: CAKI-1 renal
CCRF-CEM leukemia = tested on: CCRF-CEM leukemia
COLO 205 colon = tested on: COLO 205 colon
DU-145 prostate = tested on: DU-145 prostate
EKVX NSCLC = tested on: EKVX NSCLC
HCC-2998 colon = tested on: HCC-2998 colon
HCT-116 colon = tested on: HCT-116 colon
HCT-15 colon = tested on: HCT-15 colon
HL-60(TB) leukemia = tested on: HL-60(TB) leukemia
HOP-62 NSCLC = tested on: HOP-62 NSCLC
HOP-92 NSCLC = tested on: HOP-92 NSCLC
HS 578T breast = tested on: HS 578T breast
HT29 colon = tested on: HT29 colon
IGROV1 ovarian = tested on: IGROV1 ovarian
K-562 leukemia = tested on: K-562 leukemia
KM12 colon = tested on: KM12 colon
LOX IMVI melanoma = tested on: LOX IMVI melanoma
M14 melanoma = tested on: M14 melanoma
MALME-3M melanoma = tested on: MALME-3M melanoma
MCF7 breast = tested on: MCF7 breast
MDA-MB-231 breast = tested on: MDA-MB-231 breast
MDA-MB-435 melanoma = tested on: MDA-MB-435 melanoma
MDA-MB-468 breast = tested on: MDA-MB-468 breast
MOLT-4 leukemia = tested on: MOLT-4 leukemia
NCI-H226 lung = tested on: NCI-H226 lung
NCI-H23 lung = tested on: NCI-H23 lung
NCI-H322M lung = tested on: NCI-H322M lung
NCI-H460 NSCLC = tested on: NCI-H460 NSCLC
NCI-H522 lung = tested on: NCI-H522 lung
NCI/ADR-RES ovarian = tested on: NCI/ADR-RES ovarian
OVCAR-3 ovarian = tested on: OVCAR-3 ovarian
OVCAR-4 ovarian = tested on: OVCAR-4 ovarian
OVCAR-5 ovarian = tested on: OVCAR-5 ovarian
OVCAR-8 ovarian = tested on: OVCAR-8 ovarian
PC-3 prostate = tested on: PC-3 prostate
RPMI-8226 leukemia = tested on: RPMI-8226 leukemia
RXF 393 renal = tested on: RXF 393 renal
SF-268 CNS = tested on: SF-268 CNS
SF-295 CNS = tested on: SF-295 CNS
SF-539 CNS = tested on: SF-539 CNS
SK-MEL-2 melanoma = tested on: SK-MEL-2 melanoma
SK-MEL-28 melanoma = tested on: SK-MEL-28 melanoma
SK-MEL-5 melanoma = tested on: SK-MEL-5 melanoma
SK-OV-3 ovarian = tested on: SK-OV-3 ovarian
SN12C renal = tested on: SN12C renal
SNB-19 CNS = tested on: SNB-19 CNS
SNB-75 CNS = tested on: SNB-75 CNS
SR leukemia = tested on: SR leukemia
SW-620 colon = tested on: SW-620 colon
T-47D breast = tested on: T-47D breast
TK-10 renal = tested on: TK-10 renal
U251 glioblastoma = tested on: U251 glioblastoma
UACC-257 melanoma = tested on: UACC-257 melanoma
UACC-62 melanoma = tested on: UACC-62 melanoma

Cc1ccncc1N1CCN(c2ccnc(Cl)c2)C1=O
> 100 µM: TGI (786-0 renal) | TGI (A498 renal) | TGI (A549 NSCLC) | TGI (ACHN renal) | TGI (BT-549 breast) | TGI (CAKI-1 renal) | TGI (CCRF-CEM leukemia) | TGI (COLO 205 colon) | TGI (DU-145 prostate) | TGI (EKVX NSCLC) | TGI (HCC-2998 colon) | TGI (HCT-116 colon) | TGI (HCT-15 colon) | TGI (HL-60(TB) leukemia) | TGI (HOP-62 NSCLC) | TGI (HOP-92 NSCLC) | TGI (HS 578T breast) | TGI (HT29 colon) | TGI (IGROV1 ovarian) | TGI (K-562 leukemia) | TGI (KM12 colon) | TGI (LOX IMVI melanoma) | TGI (M14 melanoma) | TGI (MALME-3M melanoma) | TGI (MCF7 breast) | TGI (MDA-MB-231 breast) | TGI (MDA-MB-435 melanoma) | TGI (MDA-MB-468 breast) | TGI (MOLT-4 leukemia) | TGI (NCI-H226 lung) | TGI (NCI-H23 lung) | TGI (NCI-H322M lung) | TGI (NCI-H460 NSCLC) | TGI (NCI-H522 lung) | TGI (NCI/ADR-RES ovarian) | TGI (OVCAR-3 ovarian) | TGI (OVCAR-4 ovarian) | TGI (OVCAR-5 ovarian) | TGI (OVCAR-8 ovarian) | TGI (PC-3 prostate) | TGI (RPMI-8226 leukemia) | TGI (RXF 393 renal) | TGI (SF-268 CNS) | TGI (SF-295 CNS) | TGI (SF-539 CNS) | TGI (SK-MEL-2 melanoma) | TGI (SK-MEL-28 melanoma) | TGI (SK-MEL-5 melanoma) | TGI (SK-OV-3 ovarian) | TGI (SN12C renal) | TGI (SNB-19 CNS) | TGI (SNB-75 CNS) | TGI (SR leukemia) | TGI (SW-620 colon) | TGI (T-47D breast) | TGI (TK-10 renal) | TGI (U251 glioblastoma) | TGI (UACC-257 melanoma) | TGI (UACC-62 melanoma)
inactive: GI50 ([…]-0 renal) > 100 µM | GI50 (A498 renal) > 100 µM | GI50 (A549 NSCLC) > 100 µM | GI50 (ACHN renal) > 100 µM | GI50 (BT-549 breast) > 100 µM | GI50 (CAKI-1 renal) > 100 µM | GI50 (CCRF-CEM leukemia) > 100 µM | GI50 (COLO 205 colon) > 100 µM | GI50 (DU-145 prostate) > 100 µM | GI50 (EKVX NSCLC) > 100 µM | GI50 (HCC-2998 colon) > 100 µM | GI50 (HCT-116 colon) > 100 µM | GI50 (HCT-15 colon) > 100 µM | GI50 (HL-60(TB) leukemia) > 100 µM | GI50 (HOP-62 NSCLC) > 100 µM | GI50 (HOP-92 NSCLC) > 100 µM | GI50 (HS 578T breast) > 100 µM | GI50 (HT29 colon) > 100 µM | GI50 (IGROV1 ovarian) > 100 µM | GI50 (K-562 leukemia) > 100 µM | GI50 (KM12 colon) > 100 µM | GI50 (LOX IMVI melanoma) > 100 µM | GI50 (M14 melanoma) > 100 µM | GI50 (MALME-3M melanoma) > 100 µM | GI50 (MCF7 breast) > 100 µM | GI50 (MDA-MB-231 breast) > 100 µM | GI50 (MDA-MB-435 melanoma) > 100 µM | GI50 (MDA-MB-468 breast) > 100 µM | GI50 (MOLT-4 leukemia) > 100 µM | GI50 (NCI-H226 lung) > 100 µM | GI50 (NCI-H23 lung) > 100 µM | GI50 (NCI-H322M lung) > 100 µM | GI50 (NCI-H460 NSCLC) > 100 µM | GI50 (NCI-H522 lung) > 100 µM | GI50 (NCI/ADR-RES ovarian) > 100 µM | GI50 (OVCAR-3 ovarian) > 100 µM | GI50 (OVCAR-4 ovarian) > 100 µM | GI50 (OVCAR-5 ovarian) > 100 µM | GI50 (OVCAR-8 ovarian) > 100 µM | GI50 (PC-3 prostate) > 100 µM | GI50 (RPMI-8226 leukemia) > 100 µM | GI50 (RXF 393 renal) > 100 µM | GI50 (SF-268 CNS) > 100 µM | GI50 (SF-295 CNS) > 100 µM | GI50 (SF-539 CNS) > 100 µM | GI50 (SK-MEL-2 melanoma) > 100 µM | GI50 (SK-MEL-28 melanoma) > 100 µM | GI50 (SK-MEL-5 melanoma) > 100 µM | GI50 (SK-OV-3 ovarian) > 100 µM | GI50 (SN12C renal) > 100 µM | GI50 (SNB-19 CNS) > 100 µM | GI50 (SNB-75 CNS) > 100 µM | GI50 (SR leukemia) > 100 µM | GI50 (SW-620 colon) > 100 µM | GI50 (T-47D breast) > 100 µM | GI50 (TK-10 renal) > 100 µM | GI50 (U251 glioblastoma) > 100 µM | GI50 (UACC-257 melanoma) > 100 µM | GI50 (UACC-62 melanoma) > 100 µM
